ChEMBL document CHEMBL1153048, “Novel and potent inhibitors of stearoyl-CoA desaturase-1. Part I: Discovery of 3-(2-hydroxyethoxy)-4-methoxy-N-[5-(3-trifluoromethylbenzyl)thiazol-2-yl]benzamide” (Bioorg Med Chem Lett, 2009)

Tests used:
Stearoyl-CoA desaturase [1] = target: T1, Stearoyl-CoA desaturase (Homo sapiens, UniProt O00767); experiment: Inhibition of SCD1 in human microsomes assessed as conversion of [14C]stearate to [14C]oleate after 60 mins; parameters: species or system Microsome
T1 sequence (O00767 whole entry): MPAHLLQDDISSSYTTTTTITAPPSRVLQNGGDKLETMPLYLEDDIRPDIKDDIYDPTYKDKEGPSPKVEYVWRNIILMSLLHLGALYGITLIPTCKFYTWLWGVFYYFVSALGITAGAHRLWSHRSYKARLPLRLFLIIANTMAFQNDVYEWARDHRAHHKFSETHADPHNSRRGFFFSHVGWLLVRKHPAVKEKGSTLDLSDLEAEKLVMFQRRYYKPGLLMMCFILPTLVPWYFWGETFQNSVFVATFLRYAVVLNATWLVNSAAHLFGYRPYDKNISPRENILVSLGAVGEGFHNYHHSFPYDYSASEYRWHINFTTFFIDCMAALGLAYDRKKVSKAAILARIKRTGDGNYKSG

Acyl-CoA desaturase 1 = target: T2, Acyl-CoA desaturase 1 (Mus musculus, UniProt P13516); experiment: Inhibition of SCD1 in mouse microsomes assessed as conversion of [14C]stearate to [14C]oleate after 60 mins; parameters: species or system Microsome
T2 sequence (P13516 whole entry): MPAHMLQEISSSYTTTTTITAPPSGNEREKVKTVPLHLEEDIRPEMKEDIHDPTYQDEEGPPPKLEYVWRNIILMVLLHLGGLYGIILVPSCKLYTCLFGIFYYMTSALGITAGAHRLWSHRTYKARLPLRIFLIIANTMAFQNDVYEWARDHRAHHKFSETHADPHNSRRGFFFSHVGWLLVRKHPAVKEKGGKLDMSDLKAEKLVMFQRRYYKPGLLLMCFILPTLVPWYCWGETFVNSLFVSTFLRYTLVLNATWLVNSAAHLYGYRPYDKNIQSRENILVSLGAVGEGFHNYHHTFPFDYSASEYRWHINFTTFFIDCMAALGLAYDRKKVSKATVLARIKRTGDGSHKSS

Stearoyl-CoA desaturase [2] = target: T1, Stearoyl-CoA desaturase; experiment: Inhibition of human SCD1 expressed in HEK293A cells assessed as conversion of [14C]stearate to [14C]oleate; assay type: cell-based, HEK293-A
[3] = target: T3, Acyl-CoA 6-desaturase (Homo sapiens) (UniProt O95864); experiment: Inhibition of delta-6 desaturase in human microsomes assessed as conversion of [14C]linolenic acid to [14C]stearidonic acid at 10 uM; details: Microsome
T3 sequence (whole entry): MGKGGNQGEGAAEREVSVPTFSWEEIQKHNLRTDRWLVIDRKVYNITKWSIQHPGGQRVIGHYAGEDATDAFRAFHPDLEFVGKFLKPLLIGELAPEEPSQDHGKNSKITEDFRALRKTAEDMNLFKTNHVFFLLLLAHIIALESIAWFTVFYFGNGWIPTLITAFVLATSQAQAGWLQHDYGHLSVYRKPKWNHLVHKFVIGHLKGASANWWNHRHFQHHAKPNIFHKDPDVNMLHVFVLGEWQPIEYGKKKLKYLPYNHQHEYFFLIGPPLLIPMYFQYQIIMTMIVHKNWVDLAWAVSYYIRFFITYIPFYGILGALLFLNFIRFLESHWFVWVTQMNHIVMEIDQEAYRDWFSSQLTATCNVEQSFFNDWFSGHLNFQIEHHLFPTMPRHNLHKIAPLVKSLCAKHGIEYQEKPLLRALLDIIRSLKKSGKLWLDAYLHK

[4] = Cmax in C57BL/6J mouse at 20 mg/kg, po measured up to 8 hrs; assay type: ADME, organism-based; parameters: dose 20 mg/kg, route oral; details: in vivo
[5] = Half life in C57BL/6J mouse at 20 mg/kg, po measured up to 8 hrs; assay type: ADME, organism-based; parameters: time < 8 hr, dose 20 mg/kg, route oral; details: in vivo
[6] = Tmax in C57BL/6J mouse at 20 mg/kg, po measured up to 8 hrs; assay type: ADME, organism-based; parameters: dose 20 mg/kg, route oral; details: in vivo
[7] = AUC (0 to 8 hrs) in C57BL/6J mouse at 20 mg/kg, po measured up to 8 hrs; assay type: ADME, organism-based; parameters: time < 8 hr, dose 20 mg/kg, route oral; details: plasma
[8] = Oral bioavailability in C57BL/6J mouse at 20 mg/kg measured up to 8 hrs; assay type: ADME, organism-based; details: in vivo
Mus musculus [9] = experiment: Inhibition of SCD1 in db/db mouse liver assessed as conversion of [14C]stearate to [14C]oleate administered through oral gavage; assay type: functional; details: read-out: ID50 (the source's name)
[10] = Half life in C57BL/6J mouse at 5 mg/kg; assay type: ADME, organism-based; parameters: dose 5 mg/kg; details: in vivo
[11] = Clearance in C57BL/6J mouse at 5 mg/kg, iv measured up to 8 hrs; assay type: ADME, organism-based; parameters: dose 5 mg/kg, route intravenous; details: in vivo
[12] = Volume of distribution in C57BL/6J mouse at 5 mg/kg, iv measured up to 8 hrs; assay type: ADME, organism-based; parameters: dose 5 mg/kg, route intravenous; details: in vivo
[13] = AUC (0 to 8 hrs) in C57BL/6J mouse at 5 mg/kg, iv measured up to 8 hrs; assay type: ADME, organism-based; parameters: time < 8 hr, dose 5 mg/kg, route intravenous; details: plasma
Mus musculus [14] = experiment: AUC in C57BL/6J mouse at 5 mg/kg, iv measured up to 8 hrs; details: in vivo

Structure (SMILES) | IC50 (Stearoyl-CoA desaturase [1]) [nM] | IC50 (Acyl-CoA desaturase 1) [nM] | IC50 (Stearoyl-CoA desaturase [2]) [nM] | further results
COc1ccc(C(=O)Nc2ncc(Cc3cccc(C(F)(F)F)c3)s2)cc1OCCCO | > 10000 | – | – | –
COc1ccc(C(=O)Nc2ncc(Cc3ccc(F)c(F)c3)s2)cc1OCCO | 9 | 2 | 34 | –
COc1ccc(C(=O)Nc2ncc(Cc3cc(C(F)(F)F)cc(C(F)(F)F)c3)s2)cc1OCCO | 0.2 | – | 26 | –
COc1ccc(C(=O)Nc2ncc(Cc3cccc(C(F)(F)F)c3)s2)cc1OCC(C)O (stereo not drawn) | 2160 | 2170 | – | –
COc1ccc(C(=O)Nc2ncc(Cc3cccc(C(F)(F)F)c3)s2)cc1OC | 145 | 76 | – | inhibition [3]: < 5%
COc1ccc(C(=O)Nc2ncc(Cc3ccc(F)c(C(F)(F)F)c3)s2)cc1OCCO | 0.6 | 0.2 | 8 | Cmax [4]: 550 ng/mL; AUC at 8 h [5]: 2000 ng·h/mL; half-life [6]: 1.3 h; Tmax [7]: 1.3 h; bioavailability [8]: 3%; ED50 (Mus musculus [9]): 5 mg/kg
COc1ccc(C(=O)Nc2ncc(Cc3ccc(Cl)c(Cl)c3)s2)cc1OCCO | 1 | 0.8 | 13 | –
O=C(Nc1ncc(Cc2cccc(C(F)(F)F)c2)s1)c1ccc2ccccc2c1 | – | > 10000 | – | –
COc1ccc2cc(C(=O)Nc3ncc(Cc4cccc(C(F)(F)F)c4)s3)ccc2c1 | 9 | 5 | – | inhibition [3]: < 5%
COc1ccc(C(=O)Nc2ncc(Cc3cccc(OC(F)(F)F)c3)s2)cc1OCCO | 4 | 3 | 59 | Cmax [4]: 1200 ng/mL; AUC at 8 h [5]: 4900 ng·h/mL; half-life [6]: 1.5 h; Tmax [7]: 1.3 h; bioavailability [8]: 8%; ED50 (Mus musculus [9]): 8 mg/kg
COc1ccc(C(=O)Nc2ncc(Cc3cccc(F)c3)s2)cc1OCCO | 11 | 2 | 34 | –
COc1ccc(C(=O)Nc2ncc(Cc3cccc(C(C)(C)C)c3)s2)cc1OCCO | – | 1310 | – | –
COc1ccc(C(=O)Nc2ncc(Cc3cccc(C(F)(F)F)c3)s2)cc1OCC(=O)O | – | > 10000 | – | –
COc1ccc(/C=C/C(=O)Nc2ncc(Cc3cccc(C(F)(F)F)c3)s2)cc1 | 3 | 2 | – | inhibition [3]: 21%; half-life [10]: 0.4 h; clearance [11]: 32 mL/min/kg; Vd [12]: 0.3 L/kg; AUC(0-t) at 8 h [13]: 2700 ng·h/mL
COc1ccc(C(=O)Nc2ncc(Cc3cccc(C(F)(F)F)c3)s2)cc1OCC(O)CO (stereo not drawn) | > 10000 | – | – | –
COc1cccc(C(=O)Nc2ncc(Cc3cccc(C(F)(F)F)c3)s2)c1 | 915 | 193 | – | inhibition [3]: 53%
COc1ccc(C(=O)Nc2ncc(Cc3cc(F)cc(F)c3)s2)cc1OCCO | 2.9 | 0.1 | 116 | –
COc1ccc(C(=O)Nc2ncc(Cc3cc(Cl)cc(Cl)c3)s2)cc1OCCO | 1 | 0.7 | 13 | –
COc1ccc(C(=O)Nc2ncc(Cc3cccc(C(F)(F)F)c3)s2)cc1OCCO | – | – | – | inhibition [3]: 15%; half-life [10]: 0.9 h; Vd [12]: 0.42 L/kg; AUC(0-t) at 8 h [13]: 17000 ng·h/mL; ED50 (Mus musculus [9]): 2 mg/kg; AUC (Mus musculus [14]): 4700 ng·h/mL
COc1cc(C(=O)Nc2ncc(Cc3cccc(C(F)(F)F)c3)s2)ccc1OCC(=O)O | 4380 | – | – | inhibition [3]: < 5%
Cc1ccc(C(=O)Nc2ncc(Cc3cccc(C(F)(F)F)c3)s2)cc1C | – | 8220 | – | –
COc1ccc(C(=O)Nc2ncc(Cc3ccc(F)c(Cl)c3)s2)cc1OCCO | 2 | 1 | 17 | Cmax [4]: 3600 ng/mL; AUC at 8 h [5]: 14000 ng·h/mL; half-life [6]: 2.1 h; Tmax [7]: 1 h; bioavailability [8]: 38%; ED50 (Mus musculus [9]): 2 mg/kg
COc1ccc(C(=O)Nc2ncc(Cc3cc(Cl)ccc3Cl)s2)cc1OCCO | 125 | 9 | 429 | –
COc1ccc(C(=O)Nc2ncc(Cc3cccc(C(F)(F)F)c3)s2)cc1OCC(C)(C)O | – | > 10000 | – | –
COc1ccc(C(=O)Nc2ncc(Cc3ccc(C)c(F)c3)s2)cc1OCCO | 82 | 22 | 639 | –
COc1ccc(C(=O)Nc2ncc(Cc3cccc(C(F)(F)F)c3)s2)cc1 | 1220 | – | – | –
COc1cc(C(=O)Nc2ncc(Cc3cccc(C(F)(F)F)c3)s2)ccc1OCCN1CCOCC1 | 1400 | 528 | – | inhibition [3]: < 5%
COc1cc(C(=O)Nc2ncc(Cc3cccc(C(F)(F)F)c3)s2)ccc1OCCO | 10 | 3 | – | inhibition [3]: 16%; half-life [10]: 1.4 h; clearance [11]: 3.4 mL/min/kg; Vd [12]: 0.42 L/kg; AUC(0-t) at 8 h [13]: 24000 ng·h/mL; Cmax [4]: 70 ng/mL; half-life [5]: 1.3 h; Tmax [6]: 0.5 h; AUC(0-t) at 8 h [7]: 150 ng·h/mL; bioavailability [8]: 0.2%
COc1ccc(C(=O)Nc2ncc(Cc3cccc(Cl)c3)s2)cc1OCCO | 4 | 1 | 9 | Cmax [4]: 1800 ng/mL; AUC at 8 h [5]: 10000 ng·h/mL; half-life [6]: 5.4 h; Tmax [7]: 2 h; bioavailability [8]: 12%; ED50 (Mus musculus [9]): 1 mg/kg
